Several values for one entry are separate records, joined by “and”; a condition that tells them apart may be missing. Equal entries are not always repeated.
Legend:
[1] = molecular target: bovine cardiac myofibrils (Bos taurus, UniProt Q9BE39); assay: mant-ATP chase single nucleotide turnover, cardiac myofibrils;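 note: bovine cardiac myofibrils at 1 mg/mL in PIPES buffer, 20 µM mant-ATP aged 1 min then chased with 20 mM ATP, fluorescence (ex 360, em 450 nm) read every second for 15 min at 25 °C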
From the text: We used systems of increasing complexity ranging from the isolated cardiac myosin motor domains (Fig. 3a) to synthetic thick filaments formed from purified full-length bovine cardiac myosin (Fig. 3b) and bovine cardiac myofibrils as substrates in the chase assays (Fig. 3c). In contrast to the isolated myosin motors, synthetic thick filaments contain two myosin head domains per molecule connected via their coiled-coil tail.
Synthetic thick filaments were freshly prepared by diluting full-length bovine cardiac myosin stock into assay buffer (composition in mmol L^−1: 15 PIPES pH 7, 5 MgCl2, 1 DTT) and incubation on ice for 2 h. Bovine myosin S1 and synthetic thick filament concentrations were adjusted to 0.4 μmol L^−1 with assay buffer and 40 μL aliquoted into individual wells of a black 384-well plate (Greiner). Mant-ATP (JenaBioscience) was added to each well to a final concentration of 0.4 μmol L^−1 using an automated injector unit in a ClarioStar Plate Reader (BMG LabTech) and the system was allowed to age for 1 min. The chase phase was started by adding a final concentration of 2 mmol L^−1 ATP using a second automated injector unit. Fluorescence intensity from each well was constantly measured for 15 min every 1 sec at 25 °C with the following settings: excitation at 360 nm with a 20 nm bandwidth and emission at 450 nm with a 20 nm bandwidth. For experiments with cardiac myofibrils the concentration was adjusted to 1 mg m L^−1, and the mant-ATP and ATP concentrations were increased to 20 μmol L^−1 and 20 mmol L^−1, respectively.

[2] = tested on: isolated cardiac muscle fibers; conditions: read-out: reported IC50 for force inhibition; cited from earlier work
[3] = Cardiac myofibrils, individual replicates

Chain of bovine cardiac myofibrils (Q9BE39 whole entry): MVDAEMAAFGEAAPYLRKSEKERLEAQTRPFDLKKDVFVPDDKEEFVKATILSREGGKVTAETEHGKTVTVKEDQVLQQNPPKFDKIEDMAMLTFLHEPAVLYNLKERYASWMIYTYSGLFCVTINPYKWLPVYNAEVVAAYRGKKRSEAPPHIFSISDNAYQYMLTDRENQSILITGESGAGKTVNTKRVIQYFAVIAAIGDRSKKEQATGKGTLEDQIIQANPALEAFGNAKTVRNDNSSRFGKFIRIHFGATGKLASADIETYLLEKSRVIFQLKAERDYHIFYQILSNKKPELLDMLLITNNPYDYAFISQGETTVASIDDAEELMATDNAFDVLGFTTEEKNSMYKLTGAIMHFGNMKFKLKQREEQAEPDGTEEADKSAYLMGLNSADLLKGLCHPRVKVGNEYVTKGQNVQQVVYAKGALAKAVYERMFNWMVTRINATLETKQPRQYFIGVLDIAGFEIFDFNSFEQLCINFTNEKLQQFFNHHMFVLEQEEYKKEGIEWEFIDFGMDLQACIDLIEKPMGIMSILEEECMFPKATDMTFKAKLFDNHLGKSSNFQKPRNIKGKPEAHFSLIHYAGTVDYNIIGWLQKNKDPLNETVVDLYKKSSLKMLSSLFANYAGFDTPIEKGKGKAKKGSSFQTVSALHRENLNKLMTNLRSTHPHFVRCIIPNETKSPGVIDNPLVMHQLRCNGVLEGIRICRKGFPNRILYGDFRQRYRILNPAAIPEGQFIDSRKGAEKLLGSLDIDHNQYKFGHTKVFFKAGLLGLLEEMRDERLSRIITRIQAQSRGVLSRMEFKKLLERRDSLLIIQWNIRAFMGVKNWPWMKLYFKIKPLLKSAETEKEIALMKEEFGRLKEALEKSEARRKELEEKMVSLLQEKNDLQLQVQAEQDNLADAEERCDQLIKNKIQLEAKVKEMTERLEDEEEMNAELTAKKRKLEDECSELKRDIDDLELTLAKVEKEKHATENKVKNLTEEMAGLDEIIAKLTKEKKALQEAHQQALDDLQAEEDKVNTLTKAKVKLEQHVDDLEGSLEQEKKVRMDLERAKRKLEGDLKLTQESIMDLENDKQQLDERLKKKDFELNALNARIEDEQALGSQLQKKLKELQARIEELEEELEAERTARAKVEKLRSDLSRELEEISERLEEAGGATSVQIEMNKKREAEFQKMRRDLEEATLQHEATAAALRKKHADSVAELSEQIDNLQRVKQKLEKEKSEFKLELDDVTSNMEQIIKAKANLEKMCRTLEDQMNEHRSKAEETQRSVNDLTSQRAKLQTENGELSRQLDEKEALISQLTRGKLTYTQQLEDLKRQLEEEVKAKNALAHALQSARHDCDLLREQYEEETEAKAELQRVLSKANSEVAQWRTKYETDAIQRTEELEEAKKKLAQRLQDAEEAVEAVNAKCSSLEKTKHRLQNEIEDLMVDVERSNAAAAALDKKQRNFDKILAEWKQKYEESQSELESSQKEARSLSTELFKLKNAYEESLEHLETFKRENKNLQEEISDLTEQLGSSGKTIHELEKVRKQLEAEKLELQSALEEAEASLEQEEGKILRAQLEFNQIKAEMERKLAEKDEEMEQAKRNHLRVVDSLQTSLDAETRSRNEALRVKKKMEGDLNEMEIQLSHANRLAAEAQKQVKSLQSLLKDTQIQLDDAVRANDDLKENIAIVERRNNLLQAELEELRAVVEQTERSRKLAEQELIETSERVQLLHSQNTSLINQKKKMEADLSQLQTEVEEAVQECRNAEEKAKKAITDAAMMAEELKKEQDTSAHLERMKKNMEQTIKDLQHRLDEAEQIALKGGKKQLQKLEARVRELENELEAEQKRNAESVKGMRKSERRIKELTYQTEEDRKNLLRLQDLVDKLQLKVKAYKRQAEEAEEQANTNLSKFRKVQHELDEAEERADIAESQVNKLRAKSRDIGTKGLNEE
Chain of bovine cardiac myofibrils (P85100 whole entry partner): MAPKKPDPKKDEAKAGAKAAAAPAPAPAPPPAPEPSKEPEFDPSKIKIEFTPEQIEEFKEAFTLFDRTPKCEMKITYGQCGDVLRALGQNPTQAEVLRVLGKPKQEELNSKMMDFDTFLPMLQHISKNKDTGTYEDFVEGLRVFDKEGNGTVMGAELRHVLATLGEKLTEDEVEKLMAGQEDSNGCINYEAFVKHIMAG
Chain of bovine cardiac myofibrils (Q3SZE5 whole entry partner): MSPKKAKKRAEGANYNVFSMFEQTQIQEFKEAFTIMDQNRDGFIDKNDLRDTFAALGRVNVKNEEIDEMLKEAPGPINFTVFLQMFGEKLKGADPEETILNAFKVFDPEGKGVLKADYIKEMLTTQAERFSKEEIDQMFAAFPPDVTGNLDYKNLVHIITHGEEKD

CC(C)n1c(=O)cc(N[C@@H](C)c2ccccc2)[nH]c1=O [Mavacamten]
effect on the rate of the fast phase [1]: no effect | kfast ([1]; 2 μmol L^−1 Mavacamten or 20 μmol L^−1 F10, control 0.0719 ± 0.0193): 0.0637 ± 0.0271 s⁻¹ | kfast [1, 3]: 0.1448 s⁻¹ and 0.0188 s⁻¹ and 0.01818 s⁻¹ and 0.1128 s⁻¹ and 0.02375 s⁻¹ | kslow [1, 3]: 0.005449 s⁻¹ and 0.0002437 s⁻¹ and 0.001429 s⁻¹ and 0.00295 s⁻¹ and 0.003851 s⁻¹ | slow phase [1, 3]: 76.35% and 29.71% and 40.4% and 38.11% and 48.47% | Bar graph ([1]; Figure 3c, individual replicates): 76.35 and 29.71 and 40.4 and 38.11 and 48.47 | Representative Traces ([1]; t [s] = 6): 0.8107 | Representative Traces ([1]; t [s] = 7): 0.8334 | Representative Traces ([1]; t [s] = 8): 0.8024 | Representative Traces ([1]; t [s] = 9): 0.8319 | Representative Traces ([1]; t [s] = 10): 0.793 | Representative Traces ([1]; t [s] = 11): 0.7299 | Representative Traces ([1]; t [s] = 12): 0.7382 | Representative Traces ([1]; t [s] = 13): 0.7429 | Representative Traces ([1]; t [s] = 14): 0.7007 | Representative Traces ([1]; t [s] = 96): 0.4149 | Representative Traces ([1]; t [s] = 97): 0.3828 | Representative Traces ([1]; t [s] = 98): 0.3883 | Representative Traces ([1]; t [s] = 99): 0.382 | Representative Traces ([1]; t [s] = 100): 0.393 | Representative Traces ([1]; t [s] = 101): 0.411 | Representative Traces ([1]; t [s] = 102): 0.3936 | Representative Traces ([1]; t [s] = 103): 0.355 | Representative Traces ([1]; t [s] = 104): 0.403 | Representative Traces ([1]; t [s] = 105): 0.3774 | Representative Traces ([1]; t [s] = 106): 0.4119 | Representative Traces ([1]; t [s] = 107): 0.4038 | Representative Traces ([1]; t [s] = 108): 0.3884 | Representative Traces ([1]; t [s] = 109): 0.3828 | Representative Traces ([1]; t [s] = 110): 0.3991 | Representative Traces ([1]; t [s] = 111): 0.3974 | Representative Traces ([1]; t [s] = 112): 0.3704 | Representative Traces ([1]; t [s] = 113): 0.3729 | Representative Traces ([1]; t [s] = 114): 0.3757 | Representative Traces ([1]; t [s] = 115): 0.3708 | Representative Traces ([1]; t [s] = 116): 0.3829 | Representative Traces ([1]; t [s] = 117): 0.3692 | Representative Traces ([1]; t [s] = 118): 0.3929 | Representative Traces ([1]; t [s] = 119): 0.3896 | Representative Traces ([1]; t [s] = 120): 0.34 | Representative Traces ([1]; t [s] = 121): 0.3562 | Representative Traces ([1]; t [s] = 122): 0.3276 | Representative Traces ([1]; t [s] = 123): 0.3379 | Representative Traces ([1]; t [s] = 124): 0.3372 | Representative Traces ([1]; t [s] = 125): 0.3385 | Representative Traces ([1]; t [s] = 126): 0.3527 | Representative Traces ([1]; t [s] = 127): 0.3498 | Representative Traces ([1]; t [s] = 128): 0.3795 | Representative Traces ([1]; t [s] = 129): 0.3503 | Representative Traces ([1]; t [s] = 130): 0.3889 | Representative Traces ([1]; t [s] = 131): 0.3403 | Representative Traces ([1]; t [s] = 132): 0.3551 | Representative Traces ([1]; t [s] = 133): 0.3408 | Representative Traces ([1]; t [s] = 134): 0.3174 | Representative Traces ([1]; t [s] = 135): 0.3637 | Representative Traces ([1]; t [s] = 136): 0.3269 | Representative Traces ([1]; t [s] = 137): 0.3446 | Representative Traces ([1]; t [s] = 138): 0.322 | Representative Traces ([1]; t [s] = 140): 0.3437 | Representative Traces ([1]; t [s] = 141): 0.3145 | Representative Traces ([1]; t [s] = 142): 0.3341 | Representative Traces ([1]; t [s] = 143): 0.3342 | Representative Traces ([1]; t [s] = 144): 0.3241 | Representative Traces ([1]; t [s] = 145): 0.353 | Representative Traces ([1]; t [s] = 146): 0.3167 | Representative Traces ([1]; t [s] = 147): 0.3169 | Representative Traces ([1]; t [s] = 150): 0.3343 | Representative Traces ([1]; t [s] = 151): 0.3323 | Representative Traces ([1]; t [s] = 152): 0.3258 | Representative Traces ([1]; t [s] = 153): 0.3279 | Representative Traces ([1]; t [s] = 154): 0.3292 | Representative Traces ([1]; t [s] = 155): 0.3236 | Representative Traces ([1]; t [s] = 156): 0.3153 | Representative Traces ([1]; t [s] = 157): 0.312 | Representative Traces ([1]; t [s] = 158): 0.3484 | Representative Traces ([1]; t [s] = 159): 0.3282 | Representative Traces ([1]; t [s] = 160): 0.2877 | Representative Traces ([1]; t [s] = 161): 0.3298 | Representative Traces ([1]; t [s] = 162): 0.3159 | Representative Traces ([1]; t [s] = 164): 0.2984 | Representative Traces ([1]; t [s] = 165): 0.3474 | Representative Traces ([1]; t [s] = 166): 0.3344 | Representative Traces ([1]; t [s] = 167): 0.3033 | Representative Traces ([1]; t [s] = 168): 0.3319 | Representative Traces ([1]; t [s] = 169): 0.3401 | Representative Traces ([1]; t [s] = 170): 0.3298 | Representative Traces ([1]; t [s] = 171): 0.3174 | Representative Traces ([1]; t [s] = 172): 0.335 | Representative Traces ([1]; t [s] = 173): 0.2879 | Representative Traces ([1]; t [s] = 174): 0.2744 | Representative Traces ([1]; t [s] = 175): 0.3144 | Representative Traces ([1]; t [s] = 177): 0.3003 | Representative Traces ([1]; t [s] = 180): 0.3087 | Representative Traces ([1]; t [s] = 181): 0.2965 | Representative Traces ([1]; t [s] = 182): 0.2814 | Representative Traces ([1]; t [s] = 183): 0.3178 | Representative Traces ([1]; t [s] = 184): 0.3078 | Representative Traces ([1]; t [s] = 185): 0.2721 | Representative Traces ([1]; t [s] = 186): 0.3115 | Representative Traces ([1]; t [s] = 187): 0.2704 | Representative Traces ([1]; t [s] = 188): 0.2836 | Representative Traces ([1]; t [s] = 189): 0.2816 | Representative Traces ([1]; t [s] = 190): 0.2901 | Representative Traces ([1]; t [s] = 191): 0.3081 | Representative Traces ([1]; t [s] = 192): 0.2598 | Representative Traces ([1]; t [s] = 193): 0.2745 | IC50 [2]: ~1000 nM

Reference: paper PMC10673995, “Discovery of a novel cardiac-specific myosin modulator using artificial intelligence-based virtual screening” (Nature Communications, 2023)
